Series [1] is described as follows: Half life in Sprague-Dawley rat liver microsomes at 6 ug/ml by HPLC method. It counts as ADME.
For series [2], the target named is T1, Sterol O-acyltransferase 2 (Mus musculus) (UniProt O88908).
T1 sequence (whole entry): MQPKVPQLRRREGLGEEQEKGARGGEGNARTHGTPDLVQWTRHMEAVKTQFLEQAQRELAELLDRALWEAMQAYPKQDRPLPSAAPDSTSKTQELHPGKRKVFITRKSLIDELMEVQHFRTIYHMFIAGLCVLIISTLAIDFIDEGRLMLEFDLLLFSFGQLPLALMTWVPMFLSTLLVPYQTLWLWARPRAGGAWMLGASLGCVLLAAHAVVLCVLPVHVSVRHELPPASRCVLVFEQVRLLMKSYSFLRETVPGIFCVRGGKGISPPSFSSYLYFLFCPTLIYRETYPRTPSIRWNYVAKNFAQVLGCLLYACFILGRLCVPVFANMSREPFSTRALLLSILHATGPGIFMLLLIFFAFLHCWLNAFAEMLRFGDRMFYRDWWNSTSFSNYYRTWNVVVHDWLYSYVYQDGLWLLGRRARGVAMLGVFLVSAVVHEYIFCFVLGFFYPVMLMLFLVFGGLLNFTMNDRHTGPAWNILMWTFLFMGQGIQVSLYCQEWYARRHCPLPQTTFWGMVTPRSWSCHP
As to the kind of experiment: Ratio of compound IC50 to PRD 043 IC50 for ACAT2 in mouse hepatic microsomal membranes. It counts as cell membranes. To be noted: Liver, Microsomal Membrane.

The compound `CC(=O)O[C@H]1C[C@H]2[C@]3(C)CO[C@@H](c4ccccc4)O[C@H]3CC[C@]2(C)[C@H]2[C@@H](O)c3c(cc(-c4cccnc4)oc3=O)O[C@]12C` had a half-life at 6 ug/ml in series [1] above 9 h. The Ratio IC50 in series [2] was below 20.
In series [1], `CC(C)C(=O)OC[C@@]1(C)[C@@H]2C[C@H](OC(=O)c3ccc([N+](=O)[O-])cc3)[C@@]3(C)Oc4cc(-c5cccnc5)oc(=O)c4[C@H](O)[C@@H]3[C@@]2(C)CC[C@@H]1OC(=O)C(C)C` had a half-life at 6 ug/ml above 9 h. Moreover, the Ratio IC50 in series [2] was below 20.
Consider `CN(C)c1ccc([C@@H]2OC[C@@]3(C)[C@@H]4C[C@H](OC(=O)c5ccc(C#N)cc5)[C@@]5(C)Oc6cc(-c7cccnc7)oc(=O)c6[C@H](O)[C@@H]5[C@@]4(C)CC[C@@H]3O2)cc1`, for which, in series [1], the half-life at 6 ug/ml is above 9 h. In addition, the Ratio IC50 in series [2] is below 20.
In turn, `C[C@@]12CO[C@@H](c3ccccc3)O[C@H]1CC[C@@]1(C)[C@H]2C[C@H](OC(=O)C2CCCCC2)[C@@]2(C)Oc3cc(-c4cccnc4)oc(=O)c3[C@H](O)[C@H]12` gave a half-life at 6 ug/ml in series [1] above 9 h. Besides, the Ratio IC50 in series [2] was below 20.
As to `Cc1cccc(C)c1[C@@H]1OC[C@@]2(C)[C@@H]3C[C@H](OC(=O)c4ccc(C#N)cc4)[C@@]4(C)Oc5cc(-c6cccnc6)oc(=O)c5[C@H](O)[C@@H]4[C@@]3(C)CC[C@@H]2O1`, in series [1], the half-life at 6 ug/ml was above 9 h. The Ratio IC50 in series [2] was below 20.
In series [1], `CC(=O)O[C@H]1CC[C@@]2(C)[C@@H](C[C@H](OC(=O)c3ccc(C#N)cc3)[C@@]3(C)Oc4cc(-c5cccnc5)oc(=O)c4[C@H](O)[C@H]23)[C@]1(C)COC(=O)c1ccccc1` gave a half-life at 6 ug/ml above 9 h. Also, the Ratio IC50 in series [2] is below 20.
Turning to `CC(=O)O[C@H]1CC[C@@]2(C)[C@@H](C[C@H](OC(C)=O)[C@@]3(C)Oc4cc(-c5cccnc5)oc(=O)c4[C@H](O)[C@H]23)[C@]1(C)COC(=O)c1ccccc1`, the half-life at 6 ug/ml in series [1] was above 9 h. For the same compound, in series [2], the Ratio IC50 is below 20.
For `CC(=O)OC[C@@]1(C)[C@@H]2C[C@H](OC(=O)c3ccc(C#N)cc3)[C@@]3(C)Oc4cc(-c5cccnc5)oc(=O)c4[C@H](O)[C@@H]3[C@@]2(C)CC[C@@H]1OC(=O)C(C)C`, in that order: above 9 h and below 20.
In series [1], `CC(=O)OC[C@@]1(C)[C@@H]2C[C@H](OC(=O)c3ccc(C#N)cc3)[C@@]3(C)Oc4cc(-c5cccnc5)oc(=O)c4[C@H](O)[C@@H]3[C@@]2(C)CC[C@@H]1OC(=O)c1ccccc1` returned a half-life at 6 ug/ml above 9 h. Moreover, the Ratio IC50 in series [2] was below 20.
With `Cc1ccccc1[C@@H]1OC[C@@]2(C)[C@@H]3C[C@H](OC(=O)c4ccc(F)cc4)[C@@]4(C)Oc5cc(-c6cccnc6)oc(=O)c5[C@H](O)[C@@H]4[C@@]3(C)CC[C@@H]2O1`, the half-life at 6 ug/ml in series [1] is above 9 h. Besides, the Ratio IC50 in series [2] is below 20.
For `C[C@]1(COC(=O)c2ccccc2)[C@@H]2C[C@H](OC(=O)c3ccc(C#N)cc3)[C@@]3(C)Oc4cc(-c5cccnc5)oc(=O)c4[C@H](O)[C@@H]3[C@@]2(C)CC[C@@H]1OC(=O)c1ccccc1`, in that order: above 9 h and below 20.
For `Cc1cccc([C@@H]2OC[C@@]3(C)[C@@H]4C[C@H](OC(=O)c5ccc(F)cc5)[C@@]5(C)Oc6cc(-c7cccnc7)oc(=O)c6[C@H](O)[C@@H]5[C@@]4(C)CC[C@@H]3O2)c1`, in that order: above 9 h and below 20.
For `Cc1ccc([C@@H]2OC[C@@]3(C)[C@@H]4C[C@H](OC(=O)c5ccc(C#N)cc5)[C@@]5(C)Oc6cc(-c7cccnc7)oc(=O)c6[C@H](O)[C@@H]5[C@@]4(C)CC[C@@H]3O2)c(C)c1`, in that order: above 9 h and below 20.
Compound `CC(C)C(=O)OCC1(C)[C@@H](OC(=O)C(C)C)CC[C@]2(C)[C@H]3[C@@H](O)c4c(cc(-c5cccnc5)oc4=O)O[C@]3(C)[C@@H](OC(=O)c3ccc(C#N)cc3)C[C@@H]12` (single isomer, unassigned) showed a half-life at 6 ug/ml in series [1] above 9 h. The Ratio IC50 in series [2] was below 1.

For orientation: half-life means the time needed for the level to fall by half in the phase considered.

For the origin of these results see ChEMBL document CHEMBL3880418, “Pyripyropene derivative having ACAT2 inhibiting activity and stable to metabolizing enzymes” (2013).
